Measurements from PubChem BioAssay (NCI).
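Step 1: Grow cells in 96-well plates. Step 2: Expose to compound for 48 hours at 5 concentrations. Step 3: Interpolate endpoints linearly; if unreached, use highest concentration. Abbreviation: GI50, concentration required for 50% inhibition of growth. At the TGI there is no net growth.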

What was measured:
Experiment in all cases: NCI anticancer screen, dose series, 48 h
[1] = system: HS 578T breast
[2] = system: MDA-MB-231 breast
[3] = system: A498 renal
[4] = system: SK-OV-3 ovarian
[5] = system: NCI-H460 lung
[6] = system: BT-549 breast
[7] = system: HT29 colon
[8] = system: SF-268 CNS
[9] = system: SW-620 colon
[10] = system: UO-31 renal
[11] = system: SR leukemia
[12] = system: SF-295 CNS
[13] = system: NCI-H226 lung
[14] = system: KM12 colon
[15] = system: T-47D breast
[16] = system: NCI/ADR-RES ovarian
[17] = system: COLO 205 colon
[18] = system: TK-10 renal
[19] = system: UACC-62 melanoma
[20] = system: HL-60(TB) leukemia
[21] = system: OVCAR-8 ovarian
[22] = system: ACHN renal
[23] = system: HOP-92 NSCLC
[24] = system: HCC-2998 colon
[25] = system: U251 CNS
[26] = system: IGROV1 ovarian
[27] = system: DU-145 prostate
[28] = system: OVCAR-5 ovarian
[29] = system: RPMI-8226 leukemia
[30] = system: M14 melanoma
[31] = system: SK-MEL-5 melanoma
[32] = system: RXF 393 renal
[33] = system: HCT-116 colon
[34] = system: CAKI-1 renal
[35] = system: K-562 leukemia
[36] = system: HOP-62 NSCLC
[37] = system: HCT-15 colon
[38] = system: CCRF-CEM leukemia
[39] = system: MCF7 breast
[40] = system: SN12C renal
[41] = system: UACC-257 melanoma
[42] = system: SNB-75 CNS
[43] = system: LOX IMVI melanoma
[44] = system: NCI-H522 lung
[45] = system: OVCAR-3 ovarian
[46] = system: SK-MEL-28 melanoma
[47] = system: SK-MEL-2 melanoma
[48] = system: MOLT-4 leukemia
[49] = system: NCI-H23 lung
[50] = system: 786-0 renal
[51] = system: SF-539 CNS
[52] = system: PC-3 prostate
[53] = system: MALME-3M melanoma
[54] = system: A549 NSCLC
[55] = system: OVCAR-4 ovarian
[56] = system: SNB-19 CNS
[57] = system: MDA-MB-435
[58] = system: EKVX NSCLC

Cn1cc(C2=C(c3cn(C)c4cc(C(N)=O)ccc34)C(=O)NC2=O)c2ccccc21
GI50 [1]: 0.687 µM | TGI [1]: 4.02 µM | GI50 [2]: 2.88 µM | TGI [2]: 19.9 µM | GI50 [3]: 0.47 µM | TGI [3]: 2.06 µM | GI50 [4]: 1.44 µM | TGI [4]: > 22.2 µM | GI50 [5]: 0.854 µM | TGI [5]: > 9.8 µM | GI50 [6]: 7.92 µM | TGI [6]: > 25 µM | GI50 [7]: 0.924 µM | TGI [7]: > 13.5 µM | GI50 [8]: 1.74 µM | TGI [8]: > 18.3 µM | GI50 [9]: 1.27 µM | TGI [9]: > 25 µM | GI50 [10]: 1.81 µM | TGI [10]: > 20.1 µM | GI50 [11]: 0.656 µM | TGI [11]: > 22.8 µM | GI50 [12]: 0.987 µM | TGI [12]: > 25 µM | GI50 [13]: 4.29 µM | TGI [13]: > 21.7 µM | GI50 [14]: 1.02 µM | TGI [14]: 6.17 µM | GI50 [15]: 1.98 µM | TGI [15]: > 25 µM | GI50 [16]: 1.16 µM | TGI [16]: > 25 µM | GI50 [17]: 0.914 µM | TGI [17]: 6.08 µM | GI50 [18]: 3.76 µM | TGI [18]: > 21 µM | GI50 [19]: 2.31 µM | TGI [19]: > 16.8 µM | GI50 [20]: 0.769 µM | TGI [20]: 3.48 µM | GI50 [21]: 1.67 µM | TGI [21]: > 25 µM | GI50 [22]: 2.64 µM | TGI [22]: > 25 µM | GI50 [23]: 2.15 µM | TGI [23]: 24.5 µM | GI50 [24]: 5.17 µM | TGI [24]: > 25 µM | GI50 [25]: 1.04 µM | TGI [25]: > 25 µM | GI50 [26]: 2.48 µM | TGI [26]: > 19.7 µM | GI50 [27]: 0.987 µM | TGI [27]: > 10.2 µM | GI50 [28]: 11.1 µM | TGI [28]: > 25 µM | GI50 [29]: 1.65 µM | TGI [29]: > 20.8 µM | GI50 [30]: 1.08 µM | TGI [30]: > 25 µM | GI50 [31]: 0.751 µM | TGI [31]: 3.39 µM | GI50 [32]: 0.559 µM | TGI [32]: 1.95 µM | GI50 [33]: 1.08 µM | TGI [33]: > 21.6 µM | GI50 [34]: 0.831 µM | TGI [34]: 10.7 µM | GI50 [35]: 0.857 µM | TGI [35]: > 25 µM | GI50 [36]: 1.67 µM | TGI [36]: > 25 µM | GI50 [37]: 1.19 µM | TGI [37]: > 25 µM | GI50 [38]: 0.951 µM | TGI [38]: > 25 µM | GI50 [39]: 0.949 µM | TGI [39]: > 25 µM | GI50 [40]: 1.91 µM | TGI [40]: 13.8 µM | GI50 [41]: 3.66 µM | TGI [41]: > 25 µM | GI50 [42]: 0.447 µM | TGI [42]: > 7.9 µM | GI50 [43]: 1.76 µM | TGI [43]: > 25 µM | GI50 [44]: 0.471 µM | TGI [44]: 3.2 µM | GI50 [45]: 0.608 µM | TGI [45]: 1.57 µM | GI50 [46]: 2.66 µM | TGI [46]: > 25 µM | GI50 [47]: 1.44 µM | TGI [47]: > 16.1 µM | GI50 [48]: 1.83 µM | TGI [48]: > 20.9 µM | GI50 [49]: 1.35 µM | TGI [49]: > 25 µM | GI50 [50]: 1.81 µM | TGI [50]: 13.7 µM | GI50 [51]: 0.791 µM | TGI [51]: 4.24 µM | GI50 [52]: 0.909 µM | TGI [52]: > 25 µM | GI50 [53]: 4.2 µM | TGI [53]: > 25 µM | GI50 [54]: 1.66 µM | TGI [54]: > 25 µM | GI50 [55]: 4.91 µM | TGI [55]: > 25 µM | GI50 [56]: 2.15 µM | TGI [56]: > 25 µM

COC12C=C/C(=C(/C(=O)OCc3ccncc3)C(=O)CCCCCCCCC3(OC)C=C/C(=C(/C(=O)OCc4ccncc4)C(=O)CCCCCCCC1)O3)O2
GI50 [1]: 1.75 µM | TGI [1]: 15.4 µM | GI50 [57]: 0.121 µM | TGI [57]: 0.312 µM | GI50 [2]: 0.686 µM | TGI [2]: 6.51 µM | GI50 [3]: 0.78 µM | TGI [3]: 1.48 µM | GI50 [4]: 2.03 µM | TGI [4]: 9.02 µM | GI50 [5]: 0.915 µM | TGI [5]: 1.98 µM | GI50 [6]: 0.638 µM | TGI [6]: 3.21 µM | GI50 [7]: 0.721 µM | TGI [7]: 4.79 µM | GI50 [8]: 1.04 µM | TGI [8]: 3.28 µM | GI50 [9]: 0.227 µM | TGI [9]: 1.26 µM | GI50 [10]: 0.641 µM | TGI [10]: 1.4 µM | GI50 [11]: 0.191 µM | TGI [11]: 7.01 µM | GI50 [12]: 0.899 µM | TGI [12]: 3.29 µM | GI50 [14]: 0.78 µM | TGI [14]: 1.78 µM | GI50 [15]: 0.706 µM | TGI [15]: 21.5 µM | GI50 [16]: 0.774 µM | TGI [16]: 3.93 µM | GI50 [17]: 0.78 µM | TGI [17]: 2.18 µM | GI50 [18]: 1.6 µM | TGI [18]: 3.67 µM | GI50 [20]: 0.371 µM | TGI [20]: 1.96 µM | GI50 [21]: 0.219 µM | TGI [21]: 50 µM | GI50 [22]: 0.217 µM | TGI [22]: 1.14 µM | GI50 [23]: 1.23 µM | TGI [23]: 2.36 µM | GI50 [24]: 0.683 µM | TGI [24]: 1.39 µM | GI50 [25]: 0.5 µM | TGI [25]: 1.46 µM | GI50 [26]: 0.316 µM | TGI [26]: 2.14 µM | GI50 [27]: 0.709 µM | TGI [27]: 2.29 µM | GI50 [28]: 0.87 µM | TGI [28]: 4.6 µM | GI50 [29]: 0.196 µM | TGI [29]: 1.1 µM | GI50 [30]: 0.17 µM | TGI [30]: 0.574 µM | GI50 [31]: 0.247 µM | TGI [31]: 0.867 µM | GI50 [32]: 0.277 µM | TGI [32]: 0.896 µM | GI50 [33]: 0.111 µM | TGI [33]: 0.239 µM | GI50 [34]: 1.12 µM | TGI [34]: 2.85 µM | GI50 [36]: 1.18 µM | TGI [36]: 5.59 µM | GI50 [37]: 0.548 µM | TGI [37]: 1.74 µM | GI50 [38]: 0.0515 µM | TGI [38]: 2.29 µM | GI50 [40]: 0.471 µM | TGI [40]: 3.89 µM | GI50 [41]: 1.14 µM | TGI [41]: 4.49 µM | GI50 [42]: 0.779 µM | TGI [42]: 1.97 µM | GI50 [43]: 0.107 µM | TGI [43]: 0.264 µM | GI50 [44]: 0.564 µM | TGI [44]: 1.76 µM | GI50 [45]: 0.207 µM | TGI [45]: 0.93 µM | GI50 [46]: 0.29 µM | TGI [46]: 1.79 µM | GI50 [47]: 1.08 µM | TGI [47]: 3.05 µM | GI50 [58]: 1.21 µM | TGI [58]: 5.1 µM | GI50 [48]: 0.172 µM | TGI [48]: 1.85 µM | GI50 [49]: 0.178 µM | TGI [49]: 0.762 µM | GI50 [50]: 0.354 µM | TGI [50]: 1.19 µM | GI50 [51]: 0.877 µM | TGI [51]: 2.03 µM | GI50 [52]: 0.761 µM | TGI [52]: 2.67 µM | GI50 [54]: 0.979 µM | TGI [54]: 2.8 µM | GI50 [55]: 0.583 µM | TGI [55]: 3.41 µM | GI50 [56]: 1.28 µM | TGI [56]: 7.17 µM
